The experiment concerns cutaneous anaphylactic reaction. Briefly: passive cutaneous anaphylaxis (PCA) test in the rat. It is filed as in vivo. The note with it: dose decreasing diameter of blue area by 50% vs solvent controls, female rats. The method, then: This activity is indicated in the passive cutaneous anaphylaxis (PCA) test in the rat.
The method employed in this test is based on those described by Mota, Immunology 7, 681 (1964) and Stofland and Share, J. Physiol. Pharmacol. 52, 1114 (1974). Female rats (180-200 g) are sensitized by subcutaneous administration of 1 mg of ovalbumin and 200 mg aluminium hydroxide, dissolved in 1 ml of physiological saline solution and intraperitoneal administration of 0.5 ml of Haemophilus pertussis vaccine (SchweizerischesSerum- und Impfinstitut, Bern, Switzerland; 4×10^10 organism/ml). Fourteen day later, the animals are decapited, the blood centrifuged and the serum (anti-ovalbumin serum) collected and deep frozen.
The diluted anti-ovalbumin serum is injected intradermally (0.1 ml per injection site) at […] on the backs of untreated, female rats. Twenty-four hours after the passive sensitisation, the rats receive either solvent or the test compound i.v. in a tail-vein or per os. Immediately afterwards or, in the case of p.o. administration, 60 minutes later, the animals receive an intravenous injection of 1 ml of antigen. The antigen (5 mg/ml) is dissolved in a 0.25% solution of Evans blue dye in physiological saline. In the controls this injection elicits a cutaneous anaphylactic reaction, the intensity of which is proportional to the distance to which the dye diffuses into the tissue surrounding the four sensitisation sites. Thirty minutes later, the rats are killed in CO2 and the diameter in mm of the blue spot at each injection site measured. The drug dose decreasing the diameter of the blue area by 50% compared with solvent pretreated control rats (ED50), is obtained from the regression line. The dose-effect correlation is tested for statistical significance.
In the above test, compounds of the formula I are found to be active on administration at dosages of from about 0.1 to about 3.2 mg/kg p.o. and from about 0.056 to about 1.00 mg/kg i.v. ED50 values for the representative compounds 4-{1-[2-[2-(2-hydroxy-ethoxy)ethoxy]ethyl]piperidin-4-yliden}-4H-benzo[4,5]cyclohepta[1,2-b]thiophen-10(9H)-one. HBr (Compound A) and 2-{2-[2-[4-(5H-dibenzo[a,d]cyclohept-5-yliden)piperidin-1-yl]ethoxy]ethoxy}ethanol hydrogenofumarate (Compound B) as well as for the reference compound 5,5'-[(2-hydroxy-1,3-propanediyl)bis-(oxy)]bis[4-oxo-4H-1-benzopyran-2-carboxylic acid]

Setting [1] is: iv, i.v. in a tail-vein, immediately before antigen, read-out: ED50 (i.v.).
Setting [2] is: po, 60 minutes before antigen, read-out: ED50 (p.o).

From patent publication US4609664A, “Antiasthmatic piperidylidene derivatives” (Sandoz Ltd., priority 1980, dated 1986) come the findings set out here.

Like-named read-outs stand apart in the source and are kept apart here.

Consider `O=C1Cc2ccccc2C(=C2CCN(CCOCCOCCO)CC2)c2ccsc21` [Compound A, 4-{1-[2-[2-(2-hydroxy-ethoxy)ethoxy]ethyl]piperidin-4-yliden}-4H-benzo[4,5]cyclohepta[1,2-b]thiophen-10(9H)-one. HBr], for which the ED50 (in general, the dose at which the effect has come halfway, by size or by number of responders) under setting [1] is about 0.21 mg/kg and the ED50 under setting [2] is about 1.8 mg/kg.

In the case of `OCCOCCOCCN1CCC(=C2c3ccccc3C=Cc3ccccc32)CC1` [Compound B, 2-{2-[2-[4-(5H-dibenzo[a,d]cyclohept-5-yliden)piperidin-1-yl]ethoxy]ethoxy}ethanol hydrogenofumarate], the ED50 under setting [1] is about 0.22 mg/kg and the ED50 under setting [2] was about 0.49 mg/kg. Regarding `O=C(O)c1cc(=O)c2c(OCC(O)COc3cccc4oc(C(=O)O)cc(=O)c34)cccc2o1` [Compound C, 5,5'-[(2-hydroxy-1,3-propanediyl)bis-(oxy)]bis[4-oxo-4H-1-benzopyran-2-carboxylic acid], reference compound], the ED50 under setting [1] was about 2.6 mg/kg.
